From US12077503B2, “Substituted cyclic amides and their use as herbicides” (FMC CORPORATION, priority 2015, dated 2024)

Experiments:
Type in all cases: in vivo
[1] = tested on: ivy-leaved morning glory (Ipomoea hederacea); experiment: Test G Post-Emergence Protocol; conditions: Ipomoea, post-emergence, 312 h, read-out: Morningglory, Ivy-leaved damage rating; for pest or weed control at 15.625 g/ha: 15.625 g ai/ha, evaluated after 13 days (100=total damage to plant; 0=no damage to plant); for pest or weed control at 62.5 g/ha: 62.5 g ai/ha; for pest or weed control at 62.5 g/ha / pest or weed control at 250 g/ha: evaluated after 13 days, 100=total damage to plant, 0=no damage to plant; for pest or weed control at 250 g/ha: 250 g ai/ha
Summary of the method: (§1)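 Values are percent visual injury at 13 days after treatment (0 none, 100 total). Treatment was a post-emergence spray at 15.625, 62.5 or 250 g/ha on 8-day-old pot plants kept at 24/16 °C.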

[2] = tested on: giant foxtail (Setaria faberi); experiment: Test G Post-Emergence Protocol; conditions: Setaria faberi, post-emergence, 312 h, read-out: Foxtail, Giant damage rating; for pest or weed control at 15.625 g/ha: 15.625 g ai/ha, evaluated after 13 days (100=total damage to plant; 0=no damage to plant); for pest or weed control at 62.5 g/ha: 62.5 g ai/ha; for pest or weed control at 62.5 g/ha / pest or weed control at 250 g/ha: evaluated after 13 days, 100=total damage to plant, 0=no damage to plant; for pest or weed control at 250 g/ha: 250 g ai/ha
Summary of the method: as §1

[3] = tested on: redroot pigweed (Amaranthus retroflexus); experiment: Test G Post-Emergence Protocol; conditions: Amaranthus retroflexus, post-emergence, 312 h, read-out: Pigweed, Redroot damage rating; for pest or weed control at 15.625 g/ha: 15.625 g ai/ha, evaluated after 13 days (100=total damage to plant; 0=no damage to plant); for pest or weed control at 62.5 g/ha: 62.5 g ai/ha; for pest or weed control at 62.5 g/ha / pest or weed control at 250 g/ha: evaluated after 13 days, 100=total damage to plant, 0=no damage to plant; for pest or weed control at 250 g/ha: 250 g ai/ha
Summary of the method: as §1

[4] = tested on: velvetleaf (Abutilon theophrasti); experiment: Test G Post-Emergence Protocol; conditions: Abutilon theophrasti, post-emergence, 312 h, read-out: Velvetleaf damage rating; for pest or weed control at 15.625 g/ha: 15.625 g ai/ha, evaluated after 13 days (100=total damage to plant; 0=no damage to plant); for pest or weed control at 62.5 g/ha: 62.5 g ai/ha; for pest or weed control at 62.5 g/ha / pest or weed control at 250 g/ha: evaluated after 13 days, 100=total damage to plant, 0=no damage to plant; for pest or weed control at 250 g/ha: 250 g ai/ha
Summary of the method: as §1

corn (Zea mays) [5] = experiment: Test G Post-Emergence Protocol; conditions: Zea mays, post-emergence, 312 h, read-out: Corn damage rating; for plant injury at 15.625 g/ha: 15.625 g ai/ha, evaluated after 13 days (100=total damage to plant; 0=no damage to plant); for plant injury at 62.5 g/ha: 62.5 g ai/ha; for plant injury at 62.5 g/ha / plant injury at 250 g/ha: evaluated after 13 days, 100=total damage to plant, 0=no damage to plant; for plant injury at 250 g/ha: 250 g ai/ha
Summary of the method: as §1

[6] = tested on: barnyardgrass (Echinochloa crus-galli); experiment: Test G Post-Emergence Protocol; conditions: Echinochloa crus-galli, post-emergence, 312 h, read-out: Barnyardgrass damage rating; for pest or weed control at 15.625 g/ha: 15.625 g ai/ha, evaluated after 13 days (100=total damage to plant; 0=no damage to plant); for pest or weed control at 62.5 g/ha: 62.5 g ai/ha; for pest or weed control at 62.5 g/ha / pest or weed control at 250 g/ha: evaluated after 13 days, 100=total damage to plant, 0=no damage to plant; for pest or weed control at 250 g/ha: 250 g ai/ha
Summary of the method: as §1

[7] = tested on: ivy-leaved morning glory (Ipomoea hederacea); experiment: Test G Pre-Emergence Protocol; conditions: Ipomoea, pre-emergence, 312 h, evaluated after 13 days; for pest or weed control at 62.5 g/ha: 62.5 g ai/ha, 100=total damage to plant, 0=no damage to plant, read-out: Morningglory, Ivy-leaved damage rating; for pest or weed control at 250 g/ha: 250 g ai/ha; for pest or weed control at 250 g/ha / pest or weed control at 15.625 g/ha: read-out: Morningglory, Ivy-leaved damage rating (100=total damage to plant; 0=no damage to plant); for pest or weed control at 15.625 g/ha: 15.625 g ai/ha
Summary of the method: (§2)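 Herbicidal effect was rated 13 days post-application on a scale where 100 equals total damage. Spraying took place the day after sowing, using 15.625, 62.5 or 250 g/ha of compound in a 50:50 acetone/water solution with 0.5% Tween 20.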

[8] = tested on: giant foxtail (Setaria faberi); experiment: Test G Pre-Emergence Protocol; conditions: Setaria faberi, pre-emergence, 312 h, evaluated after 13 days; for pest or weed control at 15.625 g/ha: 15.625 g ai/ha; for pest or weed control at 15.625 g/ha / pest or weed control at 250 g/ha: read-out: Foxtail, Giant damage rating (100=total damage to plant; 0=no damage to plant); for pest or weed control at 62.5 g/ha: 62.5 g ai/ha, 100=total damage to plant, 0=no damage to plant, read-out: Foxtail, Giant damage rating; for pest or weed control at 250 g/ha: 250 g ai/ha
Summary of the method: as §2

[9] = tested on: redroot pigweed (Amaranthus retroflexus); experiment: Test G Pre-Emergence Protocol; conditions: Amaranthus retroflexus, pre-emergence, 312 h, evaluated after 13 days; for pest or weed control at 15.625 g/ha: 15.625 g ai/ha; for pest or weed control at 15.625 g/ha / pest or weed control at 250 g/ha: read-out: Pigweed, Redroot damage rating (100=total damage to plant; 0=no damage to plant); for pest or weed control at 62.5 g/ha: 62.5 g ai/ha, 100=total damage to plant, 0=no damage to plant, read-out: Pigweed, Redroot damage rating; for pest or weed control at 250 g/ha: 250 g ai/ha
Summary of the method: as §2

[10] = tested on: velvetleaf (Abutilon theophrasti); experiment: Test G Pre-Emergence Protocol; conditions: Abutilon theophrasti, pre-emergence, 312 h, evaluated after 13 days; for pest or weed control at 15.625 g/ha: 15.625 g ai/ha; for pest or weed control at 15.625 g/ha / pest or weed control at 250 g/ha: read-out: Velvetleaf damage rating (100=total damage to plant; 0=no damage to plant); for pest or weed control at 62.5 g/ha: 62.5 g ai/ha, 100=total damage to plant, 0=no damage to plant, read-out: Velvetleaf damage rating; for pest or weed control at 250 g/ha: 250 g ai/ha
Summary of the method: as §2

corn (Zea mays) [11] = experiment: Test G Pre-Emergence Protocol; conditions: Zea mays, pre-emergence, 312 h, evaluated after 13 days; for plant injury at 15.625 g/ha: 15.625 g ai/ha; for plant injury at 15.625 g/ha / plant injury at 250 g/ha: read-out: Corn damage rating (100=total damage to plant; 0=no damage to plant); for plant injury at 62.5 g/ha: 62.5 g ai/ha, 100=total damage to plant, 0=no damage to plant, read-out: Corn damage rating; for plant injury at 250 g/ha: 250 g ai/ha
Summary of the method: as §2

[12] = tested on: barnyardgrass (Echinochloa crus-galli); experiment: Test G Pre-Emergence Protocol; conditions: Echinochloa crus-galli, pre-emergence, 312 h, evaluated after 13 days; for pest or weed control at 15.625 g/ha: 15.625 g ai/ha; for pest or weed control at 15.625 g/ha / pest or weed control at 250 g/ha: read-out: Barnyardgrass damage rating (100=total damage to plant; 0=no damage to plant); for pest or weed control at 62.5 g/ha: 62.5 g ai/ha, 100=total damage to plant, 0=no damage to plant, read-out: Barnyardgrass damage rating; for pest or weed control at 250 g/ha: 250 g ai/ha
Summary of the method: as §2

| SMILES | pest or weed control at 15.625 g/ha [1] | pest or weed control at 62.5 g/ha [1] | pest or weed control at 250 g/ha [1] | pest or weed control at 15.625 g/ha [2] | pest or weed control at 62.5 g/ha [2] | pest or weed control at 15.625 g/ha [3] | pest or weed control at 62.5 g/ha [3] | pest or weed control at 250 g/ha [3] | pest or weed control at 15.625 g/ha [4] | pest or weed control at 62.5 g/ha [4] | pest or weed control at 250 g/ha [4] | plant injury at 15.625 g/ha (corn (Zea mays) [5]) | plant injury at 62.5 g/ha (corn (Zea mays) [5]) | plant injury at 250 g/ha (corn (Zea mays) [5]) | pest or weed control at 15.625 g/ha [6] | pest or weed control at 62.5 g/ha [6] | pest or weed control at 250 g/ha [6] | pest or weed control at 62.5 g/ha [7] | pest or weed control at 250 g/ha [7] | pest or weed control at 15.625 g/ha [8] | further results |
| --- | --- | --- | --- | --- | --- | --- | --- | --- | --- | --- | --- | --- | --- | --- | --- | --- | --- | --- | --- | --- | --- |
| CCOc1cc(C2CN(C)C(=O)C2C(=O)Nc2cccc(F)c2F)ccc1OC (stereo not shown) [Compound 1719] | 0% | 10% | 20% | 60% | 80% | 0% | 0% | 0% | 0% | 0% | 0% | 0% | 0% | 60% | 0% | 60% | 80% | 0% | 0% | 70% | pest or weed control at 250 g/ha [2]: 80%; pest or weed control at 62.5 g/ha [8]: 90%; pest or weed control at 250 g/ha [8]: 90%; pest or weed control at 15.625 g/ha [9]: 0%; pest or weed control at 62.5 g/ha [9]: 0%; pest or weed control at 250 g/ha [9]: 20%; pest or weed control at 15.625 g/ha [10]: 0%; pest or weed control at 62.5 g/ha [10]: 0%; pest or weed control at 250 g/ha [10]: 0%; plant injury at 15.625 g/ha (corn (Zea mays) [11]): 0%; plant injury at 62.5 g/ha (corn (Zea mays) [11]): 10%; plant injury at 250 g/ha (corn (Zea mays) [11]): 60%; pest or weed control at 15.625 g/ha [12]: 30%; pest or weed control at 62.5 g/ha [12]: 70%; pest or weed control at 250 g/ha [12]: 90% |
| CC(C)Oc1cc(F)cc(C2CN(C)C(=O)C2C(=O)Nc2cccc(F)c2F)c1 (stereo not shown) [Compound 1724] | 40% | 30% | 70% | 70% | 70% | 0% | 10% | 60% | 0% | 10% | 70% | 0% | 30% | 90% | 40% | 70% | 90% | 0% | 0% | 70% | pest or weed control at 250 g/ha [2]: 90%; pest or weed control at 15.625 g/ha [7]: 0%; pest or weed control at 62.5 g/ha [8]: 70%; pest or weed control at 250 g/ha [8]: 90%; pest or weed control at 15.625 g/ha [9]: 0%; pest or weed control at 62.5 g/ha [9]: 0%; pest or weed control at 250 g/ha [9]: 0%; pest or weed control at 15.625 g/ha [10]: 0%; pest or weed control at 62.5 g/ha [10]: 0%; pest or weed control at 250 g/ha [10]: 0%; plant injury at 15.625 g/ha (corn (Zea mays) [11]): 0%; plant injury at 62.5 g/ha (corn (Zea mays) [11]): 40%; plant injury at 250 g/ha (corn (Zea mays) [11]): 90%; pest or weed control at 15.625 g/ha [12]: 50%; pest or weed control at 62.5 g/ha [12]: 70%; pest or weed control at 250 g/ha [12]: 90% |
| CN1CC(C2CCN=C(C(C)(C)C)N2)C(C(=O)Nc2ccc(F)c(F)c2F)C1=O (stereo not shown) [Compound 1771] | 0% | 0% | 0% | 0% | 0% | 0% | 0% | 0% | 0% | 0% | 0% | 0% | 0% | 0% | 0% | 0% | 0% | 0% | 0% | 0% | pest or weed control at 15.625 g/ha [7]: 0%; pest or weed control at 62.5 g/ha [8]: 0%; pest or weed control at 250 g/ha [8]: 0%; pest or weed control at 15.625 g/ha [9]: 0%; pest or weed control at 62.5 g/ha [9]: 0%; pest or weed control at 250 g/ha [9]: 0%; pest or weed control at 15.625 g/ha [10]: 0%; pest or weed control at 62.5 g/ha [10]: 0%; pest or weed control at 250 g/ha [10]: 0%; plant injury at 15.625 g/ha (corn (Zea mays) [11]): 0%; plant injury at 62.5 g/ha (corn (Zea mays) [11]): 0%; plant injury at 250 g/ha (corn (Zea mays) [11]): 0%; pest or weed control at 15.625 g/ha [12]: 0%; pest or weed control at 62.5 g/ha [12]: 0%; pest or weed control at 250 g/ha [12]: 0% |
